Experimental data: patent US7132409B2, “Adenosine derivatives and use thereof” (Toa Eiyo Ltd., priority 2000, dated 2006)
Converted amounts (≈) assume the structure as drawn. Read-outs that look alike come from different tables or passages of the source.

How the values were obtained:
[1] = test system: ocular tension of Japanese white rabbits; assay: Test Example 1: effect of lowering ocular tension after instillation in rabbit eyes; type: in vivo; conditions: 0.1% solution, 50 μL instilled to one eye; for AUC (area under the curve of time versus change in difference in ocular tension, treated eye vs eye drop base eye): up to 480 min
Method: Each of the mentioned compounds was dissolved in saline containing polysorbate 80 (hereinafter the saline will be referred to as “eye drop base A”) or in a borate buffer (pH 7.0) containing polysorbate 80 (hereinafter the solution will be referred to as “eye drop base B”) (polysorbate 80 content of each base: 5 mg/mL).
Japanese white rabbits (male; Kitayama Labes Co., Ltd.) (weight: 2.7–3.9 kg) were employed in the test for measuring ocular tension. The rabbits were retained in a box-type fixation apparatus during the test.
The ocular tension of each rabbit was measured by use of a Model 30 Classic Pneumatonometer (product of Mentor) without anesthesia. Before the ocular tension was measured, 0.4% oxybuprocaine hydrochloride (Benoxil 0.4% eye drop solution, product of Santen Pharmaceutical Co., Ltd.) was instilled into the eyes of each rabbit, to thereby anesthetize the surface of the cornea. The ocular tension of each rabbit was measured several times at predetermined intervals. Three measurements of ocular tension, as measured when a constant value was reached, were averaged, and the average value was employed as representing the ocular tension.
A 0.1% solution of each test compound (50 μL) was instilled to one eye of each of the respective rabbits, and simultaneously the eye drop base (50 μL) was instilled to the other eye. The ocular tensions of both eyes were measured 60 minutes before instillation of the test compound; 0 minute immediately before instillation; and 30, 60, 90, 120, 150, 180, 240, 300, 360, 420, and 480 minutes after instillation. Four to six rabbits were employed for each test compound. For control, each eye drop base was instilled to both eyes of rabbits, and the ocular tension thereof was measured in a manner similar to that described above.
For each test compound, the effect of lowering ocular tension was evaluated on the basis of the following values: the area under the curve of time versus change in difference between the ocular tension of the eye to which the test compound was instilled and that of the eye to which the eye drop base was instilled (hereinafter the area will be abbreviated as AUC (mmHg•min)); and the maximum value of difference between the ocular tension of the eye to which the test compound was instilled and that of the eye to which the eye drop base was instilled (hereinafter the value will be abbreviated as Emax (mmHg)).

[2] = Test Example 2: saturation solubility in isotonic borate buffer (HPLC); conditions: for solubility at 6 h: isotonic borate buffer, 20 °C, pH 7, aqueous buffer, thermodynamic from solid
Method: (§1) Each of the test compounds was dispersed in an isotonic borate buffer (pH 7.0). The resultant mixture was shaken at 20° C. for 6 hours and then centrifuged. The concentration of the test compound in the supernatant was measured through HPLC for calculation of saturation solubility of the compound.
(§2) Detector: UV absorptiometer (wavelength: 270 nm)
(§3) Column: ODS column (inner diameter 4.6 mm, length 15 cm)
(§4) Mobile phase: An acetonitrile/triethylammonium acetate buffer (pH 7) mixture

blood flow in the retina = assay: Effects on blood vessel diameter and blood flow in the retina of rabbits; type: in vivo
optic nerve failure = assay: Model of retina failure induced through reperfusion after transient ischemia in rat; type: in vivo
[3] = pH 7
Method: as §1, §2, §3, §4

[4] = eye drop base A (saline with polysorbate 80)
[5] = eye drop base B (borate buffer pH 7.0 with polysorbate 80)

| solubility at 6 h [2] [µg/mL] | Structure (SMILES) | Emax (maximum difference in ocular tension, treated eye vs eye drop base eye) [1, 4] [mmHg] | AUC (area under the curve of time versus change in difference in ocular tension, treated eye vs eye drop base eye) [1, 4] [mmHg · min] | Emax (maximum difference in ocular tension, treated eye vs eye drop base eye) [1, 5] [mmHg] | AUC (area under the curve of time versus change in difference in ocular tension, treated eye vs eye drop base eye) [1, 5] [mmHg · min] | further results |
| --- | --- | --- | --- | --- | --- | --- |
| – | CCCCC#Cc1nc(N)c2ncn([C@@H]3O[C@H](C(=O)NC)[C@@H](O)[C@H]3O)c2n1 [Referential Compound 6, 2-(1-hexyn-1-yl)adenosine-4′-methylcarboxamide] | −6.0 | −1838.3 | – | – | Saturation solubility ([2]; isotonic borate buffer pH 7.0, shaken at 20° C. for 6 hours): 500 µg/mL |
| 16600 (≈ 44600 µM) | N#CCCCCC#Cc1nc(N)c2ncn([C@@H]3O[C@H](CO)[C@@H](O)[C@H]3O)c2n1 [Compound 1, 2-(6-cyano-1-hexyn-1-yl)adenosine] | – | – | −4.3 | −1303.1 | effects of promoting vasodilatation and blood flow in the retina (blood flow in the retina): particularly excellent effects of promoting vasodilatation and blood flow in the retina; effects of protecting optic nerve failure (optic nerve failure): particularly excellent effects of protecting optic nerve failure; melting point: 91 to 94 °C |
| – | Nc1nc(C#CC2CCCC2)nc2c1ncn2[C@@H]1O[C@H](CO)[C@@H](O)[C@H]1O [Referential Compound 3, 2-cyclopentylethynyladenosine] | – | – | −4.4 | −1532.7 | Saturation solubility [3]: 1400 µg/mL |
| 700 (≈ 1420 µM) | Nc1nc(C#CCCCCN2C(=O)c3ccccc3C2=O)nc2c1ncn2[C@@H]1O[C@H](CO)[C@@H](O)[C@H]1O [Referential Compound 5, 2-(6-phthalimidyl-1-hexyn-1-yl)adenosine] | −6.3 | −1471.0 | – | – | – |
| – | N#CCCCC#Cc1nc(N)c2ncn([C@@H]3O[C@H](CO)[C@@H](O)[C@H]3O)c2n1 [Referential Compound 1, 2-(5-cyano-1-pentyn-1-yl)adenosine] | – | – | −3.0 | −584.0 | – |
| > 200000 | N#CCCCCC#Cc1nc(N)c2ncn([C@@H]3O[C@H](COP(=O)([O-])[O-])[C@@H](O)[C@H]3O)c2n1.[Na+].[Na+] [Compound 2, disodium 2-(6-cyano-1-hexyn-1-yl)adenosine 5′-monophosphate] | – | – | −6.0 | −1965.0 | – |
| 300 (≈ 799 µM) | CCCCCCC#Cc1nc(N)c2ncn([C@@H]3O[C@H](CO)[C@@H](O)[C@H]3O)c2n1 [Referential Compound 4, 2-(1-octyn-1-yl)adenosine] | −4.2 | −1093.5 | – | – | – |
| – | N#CCCCCCC#Cc1nc(N)c2ncn([C@@H]3O[C@H](CO)[C@@H](O)[C@H]3O)c2n1 [Referential Compound 2, 2-(7-cyano-1-heptyn-1-yl)adenosine] | – | – | −2.6 | −844.5 | – |
